# Laboratory results from ChEMBL document CHEMBL1765084, “Pyrimidine-2,4,6-trione derivatives and their inhibition of mutant SOD1-dependent protein aggregation. Toward a treatment for amyotrophic lateral sclerosis” (J Med Chem, 2011).
# Active and inactive are the calls of the source. The rule behind the calls is not given here.
# Legend:
# PC-12 [1] = assay: Cytoprotection against SOD1 G93A mutant induced cytotoxicity in rat PC12 cells assessed as reduction of protein aggregates by fluorescent assay; type: functional, cell-based
# Rattus norvegicus [2] = assay: Tmax in Sprague-Dawley rat at 1 mg/kg, po; type: ADME, organism-based; set-up: dose 1 mg/kg, route oral; conditions: in vivo
# Rattus norvegicus [3] = assay: AUC last in Sprague-Dawley rat at 1 mg/kg, iv; type: ADME, organism-based, Plasma; set-up: time 0 - last, dose 1 mg/kg, route intravenous; conditions: in vivo
# Rattus norvegicus [4] = assay: Oral bioavailability in Sprague-Dawley rat at 1 mg/kg; type: ADME, organism-based; conditions: in vivo
# Plasma [5] = assay: Plasma protein binding in rat at 2 uM; type: ADME, cell-free
# [6] = Inhibition of GABA transporter at 10 uM by radioligand binding assay
# PC-12 [7] = assay: Cytoprotection against SOD1 G93A mutant induced cytotoxicity in rat PC12 cells after 24 hrs by fluorescent assay; type: functional, cell-based
# Rattus norvegicus [8] = assay: Half life in Sprague-Dawley rat at 1 mg/kg, po; type: ADME, organism-based; set-up: dose 1 mg/kg, route oral; conditions: in vivo
# Rattus norvegicus [9] = assay: Volume of distribution at steady state in Sprague-Dawley rat at 1 mg/kg, iv; type: ADME, organism-based; set-up: dose 1 mg/kg, route intravenous; conditions: in vivo
# Plasma [10] = assay: Half life in B6SJL mouse plasma by LC-MS/MS analysis
# PC-12 [11] = assay: Cytoprotection against SOD1 G93A mutant induced cytotoxicity in rat PC12 cells assessed as reduction of protein aggregates at 10 uM by fluorescent assay in presence of proteasome inhibitor MG132; type: functional, cell-based
# Cytochrome P450 2C19 = Cytochrome P450 2C19 (Homo sapiens, UniProt P33261); assay: Inhibition of CYP2C19 in human liver microsomes
# PC-12 [12] = assay: Cytoprotection against SOD1 G93A mutant induced cytotoxicity in rat PC12 cells assessed as reduction of protein aggregates at 1 uM by fluorescent assay; type: functional, cell-based
# Cytochrome P450 1A2 = molecular target: T1, Cytochrome P450 1A2 (Homo sapiens, UniProt P05177); assay: Inhibition of CYP1A2 in human liver microsomes
# T1 sequence (P05177 whole entry): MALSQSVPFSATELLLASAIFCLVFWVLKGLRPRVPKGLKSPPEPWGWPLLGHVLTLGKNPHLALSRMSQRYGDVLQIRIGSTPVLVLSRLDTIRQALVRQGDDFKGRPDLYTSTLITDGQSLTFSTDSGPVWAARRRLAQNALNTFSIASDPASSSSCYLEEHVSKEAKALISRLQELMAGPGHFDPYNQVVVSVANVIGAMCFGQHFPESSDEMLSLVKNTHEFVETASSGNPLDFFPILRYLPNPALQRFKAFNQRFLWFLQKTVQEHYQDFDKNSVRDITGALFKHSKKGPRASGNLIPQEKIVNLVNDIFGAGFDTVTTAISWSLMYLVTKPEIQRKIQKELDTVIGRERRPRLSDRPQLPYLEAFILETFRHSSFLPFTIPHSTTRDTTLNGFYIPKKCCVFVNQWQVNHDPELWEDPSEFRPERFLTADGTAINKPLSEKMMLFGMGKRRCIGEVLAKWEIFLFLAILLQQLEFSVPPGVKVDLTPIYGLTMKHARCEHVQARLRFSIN
# Plasma [13] = assay: Plasma protein binding in human at 2 uM; type: ADME, cell-free
# [14] = molecular target: T2, Estrogen receptor (Homo sapiens) (UniProt P03372); assay: Inhibition of ER alpha receptor at 10 uM by radioligand binding assay
# T2 sequence (whole entry): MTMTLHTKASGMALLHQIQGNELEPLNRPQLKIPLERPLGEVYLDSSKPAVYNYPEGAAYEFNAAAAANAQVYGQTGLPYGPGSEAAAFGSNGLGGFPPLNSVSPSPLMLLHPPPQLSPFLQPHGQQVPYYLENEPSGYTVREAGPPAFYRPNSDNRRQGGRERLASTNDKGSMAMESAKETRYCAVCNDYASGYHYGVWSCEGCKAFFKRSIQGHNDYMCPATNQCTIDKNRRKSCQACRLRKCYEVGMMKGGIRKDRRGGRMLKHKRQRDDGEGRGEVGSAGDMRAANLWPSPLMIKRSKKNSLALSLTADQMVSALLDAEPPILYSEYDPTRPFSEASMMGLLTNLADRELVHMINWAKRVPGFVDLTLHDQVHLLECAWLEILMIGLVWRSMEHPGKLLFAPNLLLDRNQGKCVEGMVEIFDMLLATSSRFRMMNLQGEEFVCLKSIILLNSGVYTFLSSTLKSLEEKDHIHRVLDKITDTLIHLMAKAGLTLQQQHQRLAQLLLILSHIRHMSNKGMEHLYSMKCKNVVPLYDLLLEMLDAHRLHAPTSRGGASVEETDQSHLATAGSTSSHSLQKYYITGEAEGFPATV
# hERG (KCNH2) = hERG (KCNH2) (Homo sapiens, UniProt Q12809); assay: Inhibition of human ERG in cells at 10 uM by patch clamp assay relative to control; conditions: cells expressing human ERG
# [15] = Inhibition of sodium channel site 2 at 10 uM by radioligand binding assay
# Liver microsomes = assay: Half life of the compound in human liver microsomes
# Rattus norvegicus [16] = assay: AUC/dose in Sprague-Dawley rat at 1 mg/kg, iv; type: ADME, organism-based, Plasma; set-up: dose 1 mg/kg, route intravenous; conditions: in vivo
# Caco-2 [17] = assay: Apparent Permeability across basolateral to apical side in human Caco2 cells at 50 uM after 2 hrs; conditions: caco-2, 2 h
# Cytochrome P450 3A4 = Cytochrome P450 3A4 (Homo sapiens, UniProt P08684); assay: Inhibition of CYP3A4 in human liver microsomes; type: ADME, Microsome
# Cytochrome P450 2D6 = Cytochrome P450 2D6 (Homo sapiens, UniProt P10635); assay: Inhibition of CYP2D6 in human liver microsomes; type: ADME, Microsome
# Rattus norvegicus [18] = assay: AUC/dose in Sprague-Dawley rat at 1 mg/kg, po; type: ADME, organism-based, Plasma; set-up: dose 1 mg/kg, route oral; conditions: in vivo
# Cytochrome P450 2C9 = Cytochrome P450 2C9 (Homo sapiens, UniProt P11712); assay: Inhibition of CYP2C9 in human liver microsomes
# Rattus norvegicus [19] = assay: Half life in Sprague-Dawley rat at 1 mg/kg, iv; type: ADME, organism-based; set-up: dose 1 mg/kg, route intravenous; conditions: in vivo
# Liver = assay: Half life of the compound in B6SJL mouse liver microsome; conditions: microsomes
# Rattus norvegicus [20] = assay: Cmax in Sprague-Dawley rat at 1 mg/kg, po; type: ADME, organism-based; set-up: dose 1 mg/kg, route oral; conditions: in vivo
# [21] = molecular target: D(3) dopamine receptor (Homo sapiens) (UniProt P35462); assay: Inhibition of dopamine D3 receptor at 10 uM by radioligand binding assay
# Caco-2 [22] = assay: Apparent Permeability across apical side to basolateral side in human Caco2 cells at 50 uM after 2 hrs; conditions: caco-2, 2 h
# [23] = Solubility of the compound in PBS buffer after 16 hrs
# [24] = Ratio of permeability from basolateral to apical side over apical to basolateral side in human Caco2 cells; conditions: Caco-2
# Chain of Cytochrome P450 2C19 (P33261 whole entry): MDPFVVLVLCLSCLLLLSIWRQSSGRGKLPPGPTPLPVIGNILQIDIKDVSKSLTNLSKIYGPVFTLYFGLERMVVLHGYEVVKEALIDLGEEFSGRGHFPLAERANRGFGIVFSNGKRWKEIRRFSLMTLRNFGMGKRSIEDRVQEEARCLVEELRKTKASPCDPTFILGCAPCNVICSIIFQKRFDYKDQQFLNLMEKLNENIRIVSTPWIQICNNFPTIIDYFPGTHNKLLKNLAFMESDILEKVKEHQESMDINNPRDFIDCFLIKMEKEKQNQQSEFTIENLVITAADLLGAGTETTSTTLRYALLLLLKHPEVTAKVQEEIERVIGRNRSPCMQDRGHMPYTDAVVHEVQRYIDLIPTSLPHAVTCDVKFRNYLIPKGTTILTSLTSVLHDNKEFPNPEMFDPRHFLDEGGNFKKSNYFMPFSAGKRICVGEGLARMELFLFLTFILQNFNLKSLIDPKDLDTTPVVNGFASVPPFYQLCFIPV
# Chain of Cytochrome P450 2C9 (P11712 whole entry): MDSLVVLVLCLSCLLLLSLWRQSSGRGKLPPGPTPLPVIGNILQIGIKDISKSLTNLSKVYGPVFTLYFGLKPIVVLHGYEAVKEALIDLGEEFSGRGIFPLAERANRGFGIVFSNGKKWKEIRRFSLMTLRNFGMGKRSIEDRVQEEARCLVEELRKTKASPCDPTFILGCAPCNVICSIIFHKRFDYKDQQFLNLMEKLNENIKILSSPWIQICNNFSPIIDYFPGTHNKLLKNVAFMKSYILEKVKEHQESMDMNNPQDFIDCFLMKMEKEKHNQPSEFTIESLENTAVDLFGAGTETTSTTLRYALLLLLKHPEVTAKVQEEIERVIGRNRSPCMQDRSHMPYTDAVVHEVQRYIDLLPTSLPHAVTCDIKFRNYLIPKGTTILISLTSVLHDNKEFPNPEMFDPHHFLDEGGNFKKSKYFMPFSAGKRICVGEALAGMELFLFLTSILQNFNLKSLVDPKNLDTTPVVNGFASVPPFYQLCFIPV
# Chain of hERG (KCNH2) (Q12809 whole entry): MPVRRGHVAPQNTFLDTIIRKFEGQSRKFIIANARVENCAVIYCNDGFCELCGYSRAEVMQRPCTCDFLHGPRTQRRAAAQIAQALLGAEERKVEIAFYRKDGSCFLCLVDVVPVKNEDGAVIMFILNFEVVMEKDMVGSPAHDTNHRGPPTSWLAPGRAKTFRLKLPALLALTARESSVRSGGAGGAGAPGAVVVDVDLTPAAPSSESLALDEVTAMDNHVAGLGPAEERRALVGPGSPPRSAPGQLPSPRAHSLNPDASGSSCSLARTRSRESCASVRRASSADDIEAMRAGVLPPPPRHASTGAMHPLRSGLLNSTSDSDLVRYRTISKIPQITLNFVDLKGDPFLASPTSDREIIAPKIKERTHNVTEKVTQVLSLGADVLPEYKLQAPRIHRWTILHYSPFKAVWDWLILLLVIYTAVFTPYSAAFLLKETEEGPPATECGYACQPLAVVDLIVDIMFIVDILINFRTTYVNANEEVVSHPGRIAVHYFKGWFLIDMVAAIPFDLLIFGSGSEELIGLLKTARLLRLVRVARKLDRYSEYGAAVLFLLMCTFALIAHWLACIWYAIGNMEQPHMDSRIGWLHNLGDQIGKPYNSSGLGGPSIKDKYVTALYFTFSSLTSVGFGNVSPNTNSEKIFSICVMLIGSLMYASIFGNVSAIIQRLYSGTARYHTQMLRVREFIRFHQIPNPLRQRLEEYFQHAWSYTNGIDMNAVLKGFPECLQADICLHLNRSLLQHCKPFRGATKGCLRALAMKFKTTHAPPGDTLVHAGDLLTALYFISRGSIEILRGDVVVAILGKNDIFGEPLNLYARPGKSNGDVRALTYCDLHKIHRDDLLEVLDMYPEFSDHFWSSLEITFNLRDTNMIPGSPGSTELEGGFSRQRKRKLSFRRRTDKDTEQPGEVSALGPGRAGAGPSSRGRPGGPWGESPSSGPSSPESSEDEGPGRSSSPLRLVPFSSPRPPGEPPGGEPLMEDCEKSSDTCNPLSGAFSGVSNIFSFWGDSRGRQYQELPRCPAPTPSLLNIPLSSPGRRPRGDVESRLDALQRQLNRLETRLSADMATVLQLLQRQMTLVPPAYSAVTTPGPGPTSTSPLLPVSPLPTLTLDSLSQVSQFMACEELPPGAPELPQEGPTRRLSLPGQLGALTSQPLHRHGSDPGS
# Chain of Cytochrome P450 2D6 (P10635 whole entry): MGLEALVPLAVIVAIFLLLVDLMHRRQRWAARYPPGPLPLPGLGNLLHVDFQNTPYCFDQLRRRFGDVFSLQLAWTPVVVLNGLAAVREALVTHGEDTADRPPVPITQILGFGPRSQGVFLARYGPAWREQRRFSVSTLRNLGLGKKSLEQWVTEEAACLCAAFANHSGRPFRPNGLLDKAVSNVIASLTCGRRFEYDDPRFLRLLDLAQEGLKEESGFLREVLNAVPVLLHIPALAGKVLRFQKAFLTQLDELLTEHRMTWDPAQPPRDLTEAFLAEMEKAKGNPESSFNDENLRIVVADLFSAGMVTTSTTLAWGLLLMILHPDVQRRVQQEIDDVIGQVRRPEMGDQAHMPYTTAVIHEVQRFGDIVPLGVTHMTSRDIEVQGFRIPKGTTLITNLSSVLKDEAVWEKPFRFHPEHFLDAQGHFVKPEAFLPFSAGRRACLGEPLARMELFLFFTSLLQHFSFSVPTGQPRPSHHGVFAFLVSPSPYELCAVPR
# Chain of Cytochrome P450 3A4 (P08684 whole entry): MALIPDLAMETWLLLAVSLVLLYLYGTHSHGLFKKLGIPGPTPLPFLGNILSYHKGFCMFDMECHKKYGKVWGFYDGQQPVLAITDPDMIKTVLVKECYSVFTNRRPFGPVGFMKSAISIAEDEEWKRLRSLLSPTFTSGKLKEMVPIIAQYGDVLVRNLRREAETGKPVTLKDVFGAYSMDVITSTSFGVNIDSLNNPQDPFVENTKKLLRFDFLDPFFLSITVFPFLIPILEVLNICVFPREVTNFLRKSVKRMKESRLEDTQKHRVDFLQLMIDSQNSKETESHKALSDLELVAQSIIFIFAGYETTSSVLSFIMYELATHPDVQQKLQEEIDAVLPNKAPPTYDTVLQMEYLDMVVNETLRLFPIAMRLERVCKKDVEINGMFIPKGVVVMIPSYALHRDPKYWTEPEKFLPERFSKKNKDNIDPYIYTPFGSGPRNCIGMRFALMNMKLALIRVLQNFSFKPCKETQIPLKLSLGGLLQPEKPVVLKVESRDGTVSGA
# Chain of D(3) dopamine receptor (Homo sapiens) (P35462 whole entry): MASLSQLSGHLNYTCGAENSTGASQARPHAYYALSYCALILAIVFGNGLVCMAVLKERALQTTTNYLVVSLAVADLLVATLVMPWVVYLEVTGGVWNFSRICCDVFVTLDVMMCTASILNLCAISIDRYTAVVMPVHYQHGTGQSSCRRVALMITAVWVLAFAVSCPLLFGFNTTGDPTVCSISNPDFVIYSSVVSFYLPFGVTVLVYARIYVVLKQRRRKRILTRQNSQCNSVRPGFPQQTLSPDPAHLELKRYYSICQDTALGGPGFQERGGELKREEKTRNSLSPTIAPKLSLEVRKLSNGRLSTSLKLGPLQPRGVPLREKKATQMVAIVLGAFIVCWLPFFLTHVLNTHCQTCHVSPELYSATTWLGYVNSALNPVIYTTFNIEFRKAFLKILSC
smiles,measurement,setting,value
O=C1CC(=O)N(CC(c2ccccc2)c2ccccc2)C(=O)N1CCCCc1ccccc1,EC50,PC-12 [1],3.61 µM
O=C1C(=Cc2c(Cl)cccc2Cl)C(=O)N(CCc2ccccc2)C(=O)N1CCc1ccccc1,EC50,PC-12 [1],3.1 µM
CC(C)OCCN1C(=O)CC(=O)N(CCc2ccc(F)cc2)C1=O,EC50,PC-12 [1],2.97 µM
Cc1cc(C=C2C(=O)N(CCc3ccccc3)C(=O)N(CCc3ccccc3)C2=O)c(C)n1-c1ccccc1,EC50,PC-12 [1],0.87 µM
O=C1CC(=O)N(CCCc2ccccc2)C(=O)N1CCCc1ccccc1,EC50,PC-12 [1],1.32 µM
O=C1CC(=O)N(CCc2ccc(F)cc2)C(=O)N1CCc1ccc(F)cc1,EC50,PC-12 [1],3.45 µM
O=C1CC(=O)N(CCc2ccccc2)C(=O)N1CCc1ccccc1,Tmax,Rattus norvegicus [2],45 min
same,AUClast,Rattus norvegicus [3],121 ng·h/mL
same,F,Rattus norvegicus [4],98%
same,PPB,Plasma [5],95%
same,inhibition,[6],19%
same,Activity,PC-12 [7],Dose-dependent effect
same,t1/2,Rattus norvegicus [8],84 min
same,EC50,PC-12 [1],1.68 µM
same,Vdss,Rattus norvegicus [9],9 L/kg
same,t1/2,Plasma [10],60.5 min
same,Activity,PC-12 [11],Active
same,IC50,Cytochrome P450 2C19,> 50 µM
same,Activity,PC-12 [12],Dose-dependent effect
same,IC50,Cytochrome P450 1A2,> 50 µM
same,PPB,Plasma [13],90%
same,inhibition,[14],20%
same,inhibition at 10 µM,hERG (KCNH2),4.9%
same,inhibition,[15],21%
same,t1/2,Liver microsomes,61 min
same,AUC/dose,Rattus norvegicus [16],126 ng·h/mL
same,Papp,Caco-2 [17],26 ×10⁻⁶ cm/s
same,IC50,Cytochrome P450 3A4,> 50 µM
same,IC50,Cytochrome P450 2D6,> 50 µM
same,AUC/dose,Rattus norvegicus [18],124 ng·h/mL
same,IC50,Cytochrome P450 2C9,> 50 µM
same,t1/2,Rattus norvegicus [19],57 min
same,t1/2,Liver,39 min
same,Cmax,Rattus norvegicus [20],55 ng/mL
same,inhibition,[21],41%
COc1ccc(CCN2C(=O)CC(=O)N(CCc3ccc(OC)c(OC)c3)C2=O)cc1OC,EC50,PC-12 [1],11.6 µM
CCCN1C(=O)CC(=O)N(CCC)C1=O,EC50,PC-12 [1],7.68 µM
CC1C(=O)N(CCc2ccccc2)C(=O)N(CCc2ccccc2)C1=O,EC50,PC-12 [1],> 32 µM
CCCCN1C(=O)CC(=O)NC1=O,EC50,PC-12 [1],> 32 µM
O=C1CC(=O)N(Cc2ccccc2)C(=O)N1Cc1ccccc1,EC50,PC-12 [1],4.58 µM
O=C1CC(=O)N(C2CCCCC2)C(=O)N1C1CCCCC1,EC50,PC-12 [1],2.97 µM
O=C1C(=Cc2ccc[nH]2)C(=O)N(CCc2ccccc2)C(=O)N1CCc1ccccc1,EC50,PC-12 [1],3.55 µM
CC1(C)C(=O)N(CCc2ccccc2)C(=O)N(CCc2ccccc2)C1=O,EC50,PC-12 [1],> 32 µM
O=c1cc(Cl)n(CCc2ccccc2)c(=O)n1CCc1ccccc1,EC50,PC-12 [1],> 32 µM
O=C1CC(=O)N(CCc2ccc(Cl)cc2)C(=O)N1CCc1ccccc1,EC50,PC-12 [1],1.19 µM
O=C1CC(=O)N(CCC(c2ccccc2)c2ccccc2)C(=O)N1CCC(c1ccccc1)c1ccccc1,EC50,PC-12 [1],1.39 µM
CCCCCCCCN1C(=O)CC(=O)N(CCc2ccccc2)C1=O,EC50,PC-12 [1],0.71 µM
O=C1CC(=O)N(Cc2ccccc2)C(=O)N1CCc1ccccc1,EC50,PC-12 [1],1.9 µM
COc1cc(=O)n(CCc2ccccc2)c(=O)n1CCc1ccccc1,EC50,PC-12 [1],> 32 µM
O=C1CC(=O)N(CCCCc2ccccc2)C(=O)N1CCCCc1ccccc1,EC50,PC-12 [1],0.68 µM
same,t1/2,Plasma [10],21.8 min
same,Papp,Caco-2 [22],9.2 ×10⁻⁶ cm/s
same,t1/2,Liver microsomes,15 min
same,Papp,Caco-2 [17],30.2 ×10⁻⁶ cm/s
same,t1/2,Liver,11 min
same,solubility,[23],105 µM
same,efflux ratio,[24],3.3
COc1ccc(CCN2C(=O)CC(=O)N(CCc3ccc(OC)cc3)C2=O)cc1,EC50,PC-12 [1],3.36 µM
O=C1CC(=O)N(C2CCc3ccccc32)C(=O)N1C1CCc2ccccc21 (stereo not given),EC50,PC-12 [1],> 32 µM
O=C1NC(=O)N(C2CCCCC2)C1=O,EC50,PC-12 [1],> 32 µM
